Active and inactive are the calls of the source. No cut-off for these calls is given here.

From ChEMBL document CHEMBL1145809, “Novel (2E,4E,6Z)-7-(2-alkoxy-3,5-dialkylbenzene)-3-methylocta-2,4,6-trienoic acid retinoid X receptor modulators are active in models of type 2 diabetes” (J Med Chem, 2003) come the findings set out here.

Tested on in one test: not listed separately
The test is described as follows: Transcriptional activation in CV-1 cells expressing RXR and LXR at 1 uM. It counts as functional.
Take `CCCCOc1c(\C(C)=C/C=C/C(C)=C/C(=O)O)cc(C(C)C)cc1C(C)C`: the Activation was found to be 0.6 fold.

The compound `C/C(=C/C=C/C(C)=C/C(=O)O)c1cc(C(C)(C)C)cc(C(C)(C)C)c1OCC(F)F` yielded an Activation of 1.2 fold.

In turn, `Cc1cc2c(cc1C1(c3ccc(C(=O)O)cn3)CC1)C(C)(C)CCC2(C)C` came in with an Activation of 6.3 fold.

In turn, `CCOc1c(\C(C)=C/C=C/C(C)=C/C(=O)O)cc(C(C)(C)C)cc1C(C)(C)C` yielded an Activation of 2.04 fold.

For another test, the system named is Mus musculus. Description: In vivo hypoglycemic activity, as reduced plasma glucose in db/db mouse type II diabetes model. Format: functional.
In the case of `CCCCOc1c(\C(C)=C/C=C/C(C)=C/C(=O)O)cc(C(C)C)cc1C(C)C`, the Activity turned out to be 502 mg/dL.

In turn, `CN(CCOc1ccc(CC2SC(=O)NC2=O)cc1)c1ccccn1.O=C(O)/C=C\C(=O)O` (centres undefined) [ROSIGLITAZONE MALEATE] gave an Activity of 412 mg/dL.

Consider `C/C(=C/C=C/C(C)=C/C(=O)O)c1cc(C(C)(C)C)cc(C(C)(C)C)c1OCC(F)F`, for which the Activity was 409 mg/dL.

`Cc1cc2c(cc1C1(c3ccc(C(=O)O)cn3)CC1)C(C)(C)CCC2(C)C` registered an Activity of 400 mg/dL.

As to `CCOc1c(\C(C)=C/C=C/C(C)=C/C(=O)O)cc(C(C)(C)C)cc1C(C)(C)C`, the Activity was 412 mg/dL.

The test system of the next test is Mus musculus. Description: In vivo hypoglycemic activity compared to BRL-46953 as reduced plasma glucose in db/db mouse type II diabetes model. It counts as functional.
On to `CCCCOc1c(\C(C)=C/C=C/C(C)=C/C(=O)O)cc(C(C)C)cc1C(C)C`, for which the Normalization is given as 33%.

Compound `CN(CCOc1ccc(CC2SC(=O)NC2=O)cc1)c1ccccn1.O=C(O)/C=C\C(=O)O` (centres undefined) [ROSIGLITAZONE MALEATE] registered a Normalization of 100%.

Take `C/C(=C/C=C/C(C)=C/C(=O)O)c1cc(C(C)(C)C)cc(C(C)(C)C)c1OCC(F)F`: the Normalization is reported as 101%.

As to `Cc1cc2c(cc1C1(c3ccc(C(=O)O)cn3)CC1)C(C)(C)CCC2(C)C`, the Normalization came to 101%.

Compound `CCOc1c(\C(C)=C/C=C/C(C)=C/C(=O)O)cc(C(C)(C)C)cc1C(C)(C)C` gave a Normalization of 100%.

The target of a further test is T1, Retinoic acid receptor gamma (Homo sapiens, UniProt P13631).
T1 sequence (P13631 whole entry): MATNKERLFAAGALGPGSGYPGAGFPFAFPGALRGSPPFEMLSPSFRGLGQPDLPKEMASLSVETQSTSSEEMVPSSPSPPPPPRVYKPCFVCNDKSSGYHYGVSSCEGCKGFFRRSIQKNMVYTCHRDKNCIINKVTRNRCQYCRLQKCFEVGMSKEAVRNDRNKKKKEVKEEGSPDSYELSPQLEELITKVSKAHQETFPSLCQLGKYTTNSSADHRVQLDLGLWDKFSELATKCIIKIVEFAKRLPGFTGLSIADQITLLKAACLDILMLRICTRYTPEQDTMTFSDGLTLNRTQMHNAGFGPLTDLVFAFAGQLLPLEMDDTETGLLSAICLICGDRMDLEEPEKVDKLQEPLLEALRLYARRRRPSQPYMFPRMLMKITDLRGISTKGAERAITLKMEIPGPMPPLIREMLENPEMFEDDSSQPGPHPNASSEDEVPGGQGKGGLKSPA
The test is described as follows: Binding affinity against Retinoic acid receptor gamma was determined in vitro by using [3H]ATRA as radioligand.
As a reminder, the Ki is the dissociation constant of the complex between target and ligand, obtained from inhibition or displacement. On to `CCCOc1c(\C(C)=C/C=C/C(C)=C/C(=O)O)cc(C(C)(C)CC)cc1C(C)(C)CC`, for which the affinity, expressed as Ki, was 10000 nM.

`COc1c(\C(C)=C/C=C/C(C)=C/C(=O)O)cc(C(C)C)cc1C(C)C` returned a Ki of 10000 nM.

In turn, `CCCOc1c(\C(C)=C/C=C/C(C)=C/C(=O)O)cc(C(C)C)cc1C(C)C` showed a Ki of 10000 nM.

`CCC(C)(C)c1cc(\C(C)=C/C=C/C(C)=C/C(=O)O)c(OC)c(C(C)(C)CC)c1` came in with a Ki of 10000 nM.

For the compound `CCCCOc1c(\C(C)=C/C=C/C(C)=C/C(=O)O)cc(C(C)C)cc1C(C)C`, the inhibitory constant (Ki) is 10000 nM.

In the case of `C/C(=C/C=C/C(C)=C/C(=O)O)c1cc(C(C)(C)C)cc(C(C)(C)C)c1OCC(F)F`, the Ki stood at 10000 nM.

In turn, `CCOc1c(\C(C)=C/C=C/C(C)=C/C(=O)O)cc(C(C)(C)C)cc1C(C)(C)C` displayed a Ki of 10000 nM.

The species entered for the next test is Rattus norvegicus. The test is described as follows: Effect on T4 levels in male Dawley rats at 24 hr r. It counts as functional.
With `CCCCOc1c(\C(C)=C/C=C/C(C)=C/C(=O)O)cc(C(C)C)cc1C(C)C`, the Activity was determined as 72 ng/mL.

In turn, `CN(CCOc1ccc(CC2SC(=O)NC2=O)cc1)c1ccccn1.O=C(O)/C=C\C(=O)O` (centres undefined) [ROSIGLITAZONE MALEATE] returned an Activity of 70 ng/mL.

For `C/C(=C/C=C/C(C)=C/C(=O)O)c1cc(C(C)(C)C)cc(C(C)(C)C)c1OCC(F)F`, the Activity stood at 70 ng/mL.

With `Cc1cc2c(cc1C1(c3ccc(C(=O)O)cn3)CC1)C(C)(C)CCC2(C)C`, the Activity stood at 37 ng/mL.

Compound `CCOc1c(\C(C)=C/C=C/C(C)=C/C(=O)O)cc(C(C)(C)C)cc1C(C)(C)C` displayed an Activity of 25 ng/mL.

The species entered for the next test is Rattus norvegicus. Description: Effect on triglyceride level in male Dawley rats at 24 hr r. Format: functional.
`CCCCOc1c(\C(C)=C/C=C/C(C)=C/C(=O)O)cc(C(C)C)cc1C(C)C`: the Activity amounted to 63 mg/dL.

Compound `CN(CCOc1ccc(CC2SC(=O)NC2=O)cc1)c1ccccn1.O=C(O)/C=C\C(=O)O` (centres undefined) [ROSIGLITAZONE MALEATE] had an Activity of 78 mg/dL.

With `C/C(=C/C=C/C(C)=C/C(=O)O)c1cc(C(C)(C)C)cc(C(C)(C)C)c1OCC(F)F`, the Activity stood at 75 mg/dL.

The compound `Cc1cc2c(cc1C1(c3ccc(C(=O)O)cn3)CC1)C(C)(C)CCC2(C)C` showed an Activity of 152 mg/dL.

Take `CCOc1c(\C(C)=C/C=C/C(C)=C/C(=O)O)cc(C(C)(C)C)cc1C(C)(C)C`: the Activity was found to be 92 mg/dL.

Tested on in another test: not listed separately
The test is described as follows: RXR:RAR synergy expressed as fold induction.
In the case of `CCCOc1c(\C(C)=C/C=C/C(C)=C/C(=O)O)cc(C(C)(C)CC)cc1C(C)(C)CC`, the Synergy was 1 fold.

On to `COc1c(\C(C)=C/C=C/C(C)=C/C(=O)O)cc(C(C)C)cc1C(C)C`, for which the Synergy was 10 fold.

Consider `CCCOc1c(\C(C)=C/C=C/C(C)=C/C(=O)O)cc(C(C)C)cc1C(C)C`, for which the Synergy came to 2 fold.

Take `CCC(C)(C)c1cc(\C(C)=C/C=C/C(C)=C/C(=O)O)c(OC)c(C(C)(C)CC)c1`: the Synergy amounted to 2 fold.

Turning to `CCCCOc1c(\C(C)=C/C=C/C(C)=C/C(=O)O)cc(C(C)C)cc1C(C)C`, the Synergy was determined as 1 fold.

For the compound `C/C(=C/C=C/C(C)=C/C(=O)O)c1cc(C(C)(C)C)cc(C(C)(C)C)c1OCC(F)F`, the Synergy came to 2 fold.

For `Cc1cc2c(cc1C1(c3ccc(C(=O)O)cn3)CC1)C(C)(C)CCC2(C)C`, the Synergy came to 7 fold.

For the compound `CCOc1c(\C(C)=C/C=C/C(C)=C/C(=O)O)cc(C(C)(C)C)cc1C(C)(C)C`, the Synergy is 3 fold.

The next test has as its target T2, Retinoic acid receptor RXR-alpha (Homo sapiens, UniProt P19793).
T2 sequence (P19793 whole entry): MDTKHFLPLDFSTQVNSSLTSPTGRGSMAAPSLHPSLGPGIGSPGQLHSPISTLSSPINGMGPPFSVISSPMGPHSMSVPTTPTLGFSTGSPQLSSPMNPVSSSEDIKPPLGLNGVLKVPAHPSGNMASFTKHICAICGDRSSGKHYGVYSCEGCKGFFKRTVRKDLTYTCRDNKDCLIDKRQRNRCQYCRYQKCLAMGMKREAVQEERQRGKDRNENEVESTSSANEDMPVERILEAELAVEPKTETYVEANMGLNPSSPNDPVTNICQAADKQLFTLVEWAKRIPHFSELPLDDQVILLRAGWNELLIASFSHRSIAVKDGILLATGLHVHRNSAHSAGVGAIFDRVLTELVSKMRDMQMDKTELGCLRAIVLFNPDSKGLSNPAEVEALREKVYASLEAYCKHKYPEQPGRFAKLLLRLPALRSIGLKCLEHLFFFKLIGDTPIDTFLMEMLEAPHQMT
The test is described as follows: Inhibitory activity against Retinoic acid receptor RXR-alpha antagonist was determined in vitro. Format: functional.
The IC50 is the concentration needed to halve the response being measured. A low value points to greater potency. In the case of `CCCOc1c(\C(C)=C/C=C/C(C)=C/C(=O)O)cc(C(C)(C)CC)cc1C(C)(C)CC`, the half-maximal inhibitory concentration (IC50) amounted to 13 nM.

Take `CCCOc1c(\C(C)=C/C=C/C(C)=C/C(=O)O)cc(C(C)C)cc1C(C)C`: the IC50 is 4 nM.

As for `CCCCOc1c(\C(C)=C/C=C/C(C)=C/C(=O)O)cc(C(C)C)cc1C(C)C`, the IC50 amounted to 4 nM.

`CCOc1c(\C(C)=C/C=C/C(C)=C/C(=O)O)cc(C(C)(C)C)cc1C(C)(C)C` registered an IC50 of 8 nM.

The target of another test is RXR alpha/PPAR gamma (Homo sapiens, UniProt P19793).
Sequence of RXR alpha/PPAR gamma (P37231 whole entry, one chain of several): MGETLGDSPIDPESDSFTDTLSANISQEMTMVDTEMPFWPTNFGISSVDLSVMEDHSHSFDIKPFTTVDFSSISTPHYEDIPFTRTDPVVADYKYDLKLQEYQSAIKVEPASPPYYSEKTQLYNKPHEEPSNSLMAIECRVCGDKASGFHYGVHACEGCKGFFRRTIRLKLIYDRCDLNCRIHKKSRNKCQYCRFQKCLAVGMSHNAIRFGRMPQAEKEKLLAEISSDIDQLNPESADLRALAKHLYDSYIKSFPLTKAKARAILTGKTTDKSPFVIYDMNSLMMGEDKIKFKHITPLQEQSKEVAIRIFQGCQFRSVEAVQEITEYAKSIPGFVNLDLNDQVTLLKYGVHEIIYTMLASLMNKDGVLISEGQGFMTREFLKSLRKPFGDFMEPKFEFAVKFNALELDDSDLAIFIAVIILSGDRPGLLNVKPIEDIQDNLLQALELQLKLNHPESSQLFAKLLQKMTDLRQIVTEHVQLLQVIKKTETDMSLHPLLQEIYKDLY
Description: Transcriptional activity against RXR:PPAR-gamma synergy was determined in vitro
Usually EC50 stands for the concentration needed to bring the measured effect to its halfway point. Read a low EC50 as greater potency. Compound `CCCOc1c(\C(C)=C/C=C/C(C)=C/C(=O)O)cc(C(C)(C)CC)cc1C(C)(C)CC` displayed an EC50 of 19 nM.

In the case of `COc1c(\C(C)=C/C=C/C(C)=C/C(=O)O)cc(C(C)C)cc1C(C)C`, the EC50 came to 8 nM.

`CCCOc1c(\C(C)=C/C=C/C(C)=C/C(=O)O)cc(C(C)C)cc1C(C)C` displayed an EC50 of 5 nM.

The compound `CCC(C)(C)c1cc(\C(C)=C/C=C/C(C)=C/C(=O)O)c(OC)c(C(C)(C)CC)c1` showed an EC50 of 6 nM.

`CCCCOc1c(\C(C)=C/C=C/C(C)=C/C(=O)O)cc(C(C)C)cc1C(C)C`: the EC50 came to 12 nM.

In turn, `CCOc1c(\C(C)=C/C=C/C(C)=C/C(=O)O)cc(C(C)(C)C)cc1C(C)(C)C` displayed a concentration for a half-maximal effect (EC50) of 2 nM.

For the next test, the target named is T2, Retinoic acid receptor RXR-alpha.
Description: Binding affinity against Retinoic acid receptor RXR-alpha was determined in vitro by using [3H]9-cis-RA as radioligand
As to `CCCOc1c(\C(C)=C/C=C/C(C)=C/C(=O)O)cc(C(C)(C)CC)cc1C(C)(C)CC`, the affinity, expressed as Ki, was 23 nM.

For `COc1c(\C(C)=C/C=C/C(C)=C/C(=O)O)cc(C(C)C)cc1C(C)C`, affinity was put at a Ki of 1 nM.

In turn, `CCCOc1c(\C(C)=C/C=C/C(C)=C/C(=O)O)cc(C(C)C)cc1C(C)C` gave a Ki of 3 nM.

Take `CCC(C)(C)c1cc(\C(C)=C/C=C/C(C)=C/C(=O)O)c(OC)c(C(C)(C)CC)c1`: the Ki is 2 nM.

For the compound `CCCCOc1c(\C(C)=C/C=C/C(C)=C/C(=O)O)cc(C(C)C)cc1C(C)C`, affinity was put at a Ki of 4 nM.

The compound `CCOc1c(\C(C)=C/C=C/C(C)=C/C(=O)O)cc(C(C)(C)C)cc1C(C)(C)C` registered a Ki of 11 nM.

Another test has the same target. This is another data set of the same source.
Description: Inhibition of Retinoic acid receptor RXR-alpha agonist activity in vitro
Regarding `COc1c(\C(C)=C/C=C/C(C)=C/C(=O)O)cc(C(C)C)cc1C(C)C`, the EC50 came to 2 nM.

In turn, `CCC(C)(C)c1cc(\C(C)=C/C=C/C(C)=C/C(=O)O)c(OC)c(C(C)(C)CC)c1` came in with an EC50 of 506 nM.

`CCOc1c(\C(C)=C/C=C/C(C)=C/C(=O)O)cc(C(C)(C)C)cc1C(C)(C)C` displayed an EC50 of 18 nM.

Another test deals with T3, Retinoic acid receptor RXR-alpha (Homo sapiens) (UniProt P19793).
T3 sequence (whole entry): T2 sequence (P19793 whole entry)
Take `CN(CCOc1ccc(CC2SC(=O)NC2=O)cc1)c1ccccn1.O=C(O)/C=C\C(=O)O` (centres undefined) [ROSIGLITAZONE MALEATE]: the NB entry was “inactive”.
